Results published in patent publication US20130184302A1, “METHODS FOR TREATING IRRITABLE BOWEL SYNDROME (IBS) AND INFECTIONS” (priority 2011, published 2013).

System: subjects with d-IBS
Assay: Adequate relief of IBS symptoms and bloating (weekly yes/no questions), rifaximin BID study in d-IBS
Type: in vivo, human
Details: for Percentage of Subjects with Number of Weeks with Adequate Relief of Bloating Symptoms / Percentage of Subjects with Number of Weeks with Adequate Relief of IBS Symptoms: ITT; for Adequate Relief of Bloating: Success / Adequate Relief of IBS symptoms: Success: end of the Treatment Phase; for Percentage of Subjects with Adequate Relief of Bloating Symptom / Percentage of Subjects with Adequate Relief of IBS Symptoms: RFX 550 mg BID 14 days, ITT N = 191; for Percentage of Subjects with Adequate Relief of Bloating Symptom: at least two of the final three weeks of treatment phase; for Percentage of Subjects with Adequate Relief of IBS Symptoms: at least two of the final three weeks of treatment phase (Weeks 1 to 4); for Adequate Relief of Bloating, Post Treatment: Failures / Adequate Relief of Bloating, Post Treatment: Success / Adequate Relief of Bloating, Post Treatment: Failure: RFX 550 2w (N = 54); for Patients with adequate relief of bloating / Patients with adequate relief of global IBS symptoms: rifaximin 550 mg twice daily 14 days
Experimental: This example relates to a study of rifaximin in subjects with d-IBS. […] There were two measures of efficacy assessed. Subjects were questioned on the relief of overall IBS symptoms and bloating. […] The analyses defined success as a “yes” response to questions regarding adequate relief.
All subpopulations in the study responded to therapy. Baseline severity was determined using 7-point Lickert scales during screening for Abdominal Pain/Discomfort and Bloating, and the number, type (normal, hard, loose) and urgency of bowel movements.
Duration of effect was assessed in a follow-up period. Subjects that responded in the 4 week treatment period were followed for an additional 3 months.
The effect of treatment on the percentage of subjects who reported adequate relief of IBS and bloating symptoms for at least two of the final three weeks during the treatment phase (Weeks 1 to 4) is shown in Tables 5-7 and FIGS. 4-6 below.
The study assessed the effect over 12 weeks of follow-up on long-term adequate relief. Subjects who had adequate relief by Week 4 and remained symptom-free at Week 5 were followed during the post-treatment phase and shown in FIGS. 1 and 2. Superiority to placebo was maintained during the 12 weeks post-treatment follow-up. Results for IBS symptoms were RFX 550 mg BID 62.3% versus placebo 49.2%, and RFX 550 mg BID 59.3% versus 50.9% for placebo for the symptom of bloating through week 16. In assessing the follow-up data, there was statistical significance (p<0.05) of bloating and IBS symptoms for RFX 550 mg BID versus placebo.
Two measures of efficacy were assessed independently. The first was the proportion of subjects who provided a ‘yes’ response to the weekly SGA question: “In the past 7 days, have you had adequate relief of your IBS symptoms? (yes/no)”. The second endpoint was the proportion of subjects who provide a ‘yes’ response to the weekly individual symptom question: “In the past 7 days, have you had adequate relief of your symptom of bloating? (yes/no)”. Durability was based on the proportion of subjects that had adequate relief over the entire treatment phase.
It is reported herein that the severity of baseline symptoms of abdominal pain and bloating influenced the response to rifaximin treatment. The co-primary endpoints in this analysis assessed weekly yes/no responses to questions regarding adequate relief of global IBS symptoms and IBS-associated bloating. Severity of baseline IBS symptoms was evaluated as a potential confounder of clinical response and was categorized as mild/moderate or severe based on a mean score of ≦4 vs. >4 (on a 7-point scale) for bloating and abdominal pain.
The Weekly yes/no responses to questions regarding adequate relief of global IBS symptoms and IBS-associated bloating were assessed. Clinical response was defined as adequate relief for 2 of the final 3 treatment weeks (wk 2, 3, or 4). Severity of baseline IBS symptoms was evaluated as a potential confounder of clinical response and was categorized as mild/moderate or severe based on a mean score of ≦4 versus >4 (on a 7-point scale (0=not bothersome; 6=very bothersome)) for bloating and abdominal pain.

[1] = patients with mild/moderate abdominal pain at baseline
[2] = patients with mild/moderate bloating at baseline

CO[C@H]1/C=C/O[C@@]2(C)Oc3c(C)c(O)c4c(O)c(c5c(nc6cc(C)ccn65)c4c3C2=O)NC(=O)/C(C)=C\C=C\[C@H](C)[C@H](O)[C@@H](C)[C@@H](O)[C@@H](C)[C@H](OC(C)=O)[C@@H]1C [Rifaximin, (2S,16Z,18E,20S,21S,22R, 23R,24R,25S,26S,27S,28E)-5,6,21,23,25 Pentahydroxy-27-methoxy-2,4,11,16,20,22,24,26-octamethyl-2,7-(epoxypentadeca-(1,11,13)trienimino) benzofuro (4,5-e) pyrido(1,2,-a) benzimidazole-1,15(2H)-dione,25-acetate]
Percentage of Subjects with Number of Weeks with Adequate Relief of Bloating Symptoms (0 weeks, RFX 550 mg BID): 35%
Percentage of Subjects with Number of Weeks with Adequate Relief of IBS Symptoms (0 weeks, RFX 550 mg BID): 33%
Percentage of Subjects with Number of Weeks with Adequate Relief of Bloating Symptoms (1 week, RFX 550 mg BID): 14%
Percentage of Subjects with Number of Weeks with Adequate Relief of IBS Symptoms (1 week, RFX 550 mg BID): 11%
Percentage of Subjects with Number of Weeks with Adequate Relief of Bloating Symptoms (2 weeks, RFX 550 mg BID): 15%
Percentage of Subjects with Number of Weeks with Adequate Relief of IBS Symptoms (2 weeks, RFX 550 mg BID): 15%
Percentage of Subjects with Number of Weeks with Adequate Relief of Bloating Symptoms (3 weeks, RFX 550 mg BID): 20%
Percentage of Subjects with Number of Weeks with Adequate Relief of IBS Symptoms (3 weeks, RFX 550 mg BID): 23%
Percentage of Subjects with Number of Weeks with Adequate Relief of Bloating Symptoms (4 weeks, RFX 550 mg BID): 14%
Percentage of Subjects with Number of Weeks with Adequate Relief of IBS Symptoms (4 weeks, RFX 550 mg BID): 16%
Treatment effect, Bloating (Age <65): 6.8%
Treatment effect, IBS Sx (Age <65): 6.9%
Treatment effect, Bloating (Age ≧65): 3.2%
Treatment effect, IBS Sx (Age ≧65): 19.1%
Treatment effect, Bloating (Diabetes History N): 7.4%
Treatment effect, IBS Sx (Diabetes History N): 9.5%
Treatment effect, Bloating (Diabetes History Y): −5.6%
Treatment effect, IBS Sx (Diabetes History Y): −12.7%
Treatment effect, Bloating (Disease Duration 10-20 y): 11.7%
Treatment effect, IBS Sx (Disease Duration 10-20 y): 20.1%
Treatment effect, Bloating (Disease Duration >20 y): 35.1%
Treatment effect, IBS Sx (Disease Duration >20 y): 46.6%
Treatment effect, Bloating (Disease Duration ≦10 y): 2.8%
Treatment effect, IBS Sx (Disease Duration ≦10 y): 1.8%
Adequate Relief of Bloating: Failure (Female, RFX 275 2w): 52 (64.2%)
Adequate Relief of IBS symptoms: Failure (Female, RFX 275 2w): 46 (56.8%)
Adequate Relief of Bloating: Success (Female, RFX 275 2w): 29 (35.8%)
Adequate Relief of IBS symptoms: Success (Female, RFX 275 2w): 35 (43.2%)
Adequate Relief of Bloating: Failure (Female, RFX 550 2w): 74 (54.0%)
Adequate Relief of IBS symptoms: Failure (Female, RFX 550 2w): 66 (48.2%)
Adequate Relief of Bloating: Success (Female, RFX 550 2w): 63 (46.0%)
Adequate Relief of IBS symptoms: Success (Female, RFX 550 2w): 71 (51.8%)
Adequate Relief of Bloating: Failure (Female, RFX 550 4w): 44 (57.9%)
Adequate Relief of IBS symptoms: Failure (Female, RFX 550 4w): 42 (55.3%)
Adequate Relief of Bloating: Success (Female, RFX 550 4w): 32 (42.1%)
Adequate Relief of IBS symptoms: Success (Female, RFX 550 4w): 34 (44.7%)
Adequate Relief of Bloating: Failure (Female, RFX 1100 2w): 45 (61.6%)
Adequate Relief of IBS symptoms: Failure (Female, RFX 1100 2w): 44 (60.3%)
Adequate Relief of Bloating: Success (Female, RFX 1100 2w): 28 (38.4%)
Adequate Relief of IBS symptoms: Success (Female, RFX 1100 2w): 29 (39.7%)
Treatment effect, Bloating (Gender F): 3.9%
Treatment effect, IBS Sx (Gender F): 3.5%
Treatment effect, Bloating (Gender M): 13.6%
Treatment effect, IBS Sx (Gender M): 21%
Adequate Relief of Bloating: Failure (Male, RFX 275 2w): 8 (57.1%)
Adequate Relief of IBS symptoms: Failure (Male, RFX 275 2w): 9 (64.3%)
Adequate Relief of Bloating: Success (Male, RFX 275 2w): 6 (42.9%)
Adequate Relief of IBS symptoms: Success (Male, RFX 275 2w): 5 (35.7%)
Adequate Relief of Bloating: Failure (Male, RFX 550 2w): 29 (53.7%)
Adequate Relief of IBS symptoms: Failure (Male, RFX 550 2w): 25 (46.3%)
Adequate Relief of Bloating: Success (Male, RFX 550 2w): 25 (46.3%)
Adequate Relief of IBS symptoms: Success (Male, RFX 550 2w): 29 (53.7%)
Adequate Relief of Bloating: Failure (Male, RFX 550 4w): 16 (72.7%)
Adequate Relief of IBS symptoms: Failure (Male, RFX 550 4w): 15 (68.2%)
Adequate Relief of Bloating: Success (Male, RFX 550 4w): 6 (27.3%)
Adequate Relief of IBS symptoms: Success (Male, RFX 550 4w): 7 (31.8%)
Adequate Relief of Bloating: Failure (Male, RFX 1100 2w): 16 (61.5%)
Adequate Relief of IBS symptoms: Failure (Male, RFX 1100 2w): 14 (53.8%)
Adequate Relief of Bloating: Success (Male, RFX 1100 2w): 10 (38.5%)
Adequate Relief of IBS symptoms: Success (Male, RFX 1100 2w): 12 (46.2%)
Percentage of Subjects with Adequate Relief of Bloating Symptom: 46%
Percentage of Subjects with Adequate Relief of IBS Symptoms: 52%
Percentage of Subjects with Adequate Relief of IBS Symptoms (listed as RFX): 52.4%
Percentage of Subjects with Adequate Relief of Bloating Symptom (listed as RFX): 46.1%
Adequate Relief of Bloating, Post Treatment: Failures (Week 6): (9.3%)
Adequate Relief of Bloating, Post Treatment: Success (Week 6): (90.7%)
Adequate Relief of Bloating, Post Treatment: Failures (Week 7): (16.7%)
Adequate Relief of Bloating, Post Treatment: Success (Week 7): (83.3%)
Adequate Relief of Bloating, Post Treatment: Failures (Week 8): (13.0%)
Adequate Relief of Bloating, Post Treatment: Success (Week 8): (87.0%)
Adequate Relief of Bloating, Post Treatment: Failures (Week 9): (27.8%)
Adequate Relief of Bloating, Post Treatment: Success (Week 9): (72.2%)
Adequate Relief of Bloating, Post Treatment: Failures (Week 10): (27.8%)
Adequate Relief of Bloating, Post Treatment: Success (Week 10): (72.2%)
Adequate Relief of Bloating, Post Treatment: Failures (Week 11): (35.2%)
Adequate Relief of Bloating, Post Treatment: Success (Week 11): (64.8%)
Adequate Relief of Bloating, Post Treatment: Failure (Week 12): (33.3%)
Adequate Relief of Bloating, Post Treatment: Success (Week 12): (66.7%)
Adequate Relief of Bloating, Post Treatment: Failure (Week 13): (38.9%)
Adequate Relief of Bloating, Post Treatment: Success (Week 13): (61.1%)
Adequate Relief of Bloating, Post Treatment: Failure (Week 14): (37.0%)
Adequate Relief of Bloating, Post Treatment: Success (Week 14): (63.0%)
Adequate Relief of Bloating, Post Treatment: Failure (Week 15): (42.6%)
Adequate Relief of Bloating, Post Treatment: Success (Week 15): (57.4%)
Adequate Relief of Bloating, Post Treatment: Failure (Week 16): (40.7%)
Treatment effect, IBS Sx (aIBS): 31.4%*, 31.4%
Treatment effect, Bloating (dIBS only): 4.5%
Treatment effect, IBS Sx (dIBS only): 6.3%
Patients with adequate relief of bloating [1]: 44%
Patients with adequate relief of global IBS symptoms [1]: 50%
Patients with adequate relief of bloating [2]: 47%
Patients with adequate relief of global IBS symptoms [2]: 56%
Long-term adequate relief of IBS symptoms, post-treatment follow-up (through week 16, RFX 550 mg BID, subjects with adequate relief by Week 4): 62.3%
